One assay concerns the target T1, hGLP1R (Homo sapiens, UniProt P43220).
T1 construct: expressed in transfected cells; host or cells: HEK-293 cells carrying a CRE-luciferase reporter gene
The assay can be described thus: hGLP1R CreLuc reporter gene assay in 0.5% and 100% plasma. Format: cell-based. Particulars: CreLuc reporter gene assay. An excerpt: (§1) Example 1: hGLPR/hGIPR/hNPY2R CreLuc Assay in 0.5% and 100% Plasma
(§2) CHO and HEK-293 recombinant cell lines express a luciferase reporter gene under control of the cAMP responsive element (CRE). As a second recombinant protein the GLP-1 and NPY2 receptors were expressed in the reporter gene HEK cells, and the GIP receptor was expressed in the reporter gene CHO cells, respectively. Stimulation of these recombinant cells with an agonist leads to an increase of intracellular cAMP levels. In the presence of cAMP, the transcription factor CRE binding protein (CREB) binds to the CRE and to the CREB binding protein (CBP), which leads to transcription of the luciferase reporter gene. Peptides upon serial-dilution in 100% DMSO were transferred into 384-well assay plates with 5 μl pre-dispensed assay buffer (1×HBSS, 20 mM HEPES, pH7.4 supplemented with 0.5% human plasma) using acoustic dispensing on a Labcyte ECHO. Cryo-preserved transgenic reporter gene cells were thawed in assay buffer. 20 μl (10.000 cells/well) were added to the plate with the peptides and incubated for 4 hours at 37° C. in a humidified incubator. Following incubation, assay plates are equilibrated to room temperature, followed by addition of 25 μl of Bright-GIo™ Luciferase reagent, incubation at room temperature for 10 minutes and analysis of luminescence (Envision Reader). Concentration response evaluation of compounds was performed with 8 concentrations of peptides (covering four decades). EC50 values were calculated by non-linear regression using sigmoid concentration-response with variable slope. The same assays were run in the presence of 100% plasma with no additional buffer constituents.

A further assay has as its target T2, hGIPR (Homo sapiens, UniProt P48546).
T2 construct: expressed in transfected cells; host or cells: CHO cells carrying a CRE-luciferase reporter gene
T2 sequence (P48546 22-466): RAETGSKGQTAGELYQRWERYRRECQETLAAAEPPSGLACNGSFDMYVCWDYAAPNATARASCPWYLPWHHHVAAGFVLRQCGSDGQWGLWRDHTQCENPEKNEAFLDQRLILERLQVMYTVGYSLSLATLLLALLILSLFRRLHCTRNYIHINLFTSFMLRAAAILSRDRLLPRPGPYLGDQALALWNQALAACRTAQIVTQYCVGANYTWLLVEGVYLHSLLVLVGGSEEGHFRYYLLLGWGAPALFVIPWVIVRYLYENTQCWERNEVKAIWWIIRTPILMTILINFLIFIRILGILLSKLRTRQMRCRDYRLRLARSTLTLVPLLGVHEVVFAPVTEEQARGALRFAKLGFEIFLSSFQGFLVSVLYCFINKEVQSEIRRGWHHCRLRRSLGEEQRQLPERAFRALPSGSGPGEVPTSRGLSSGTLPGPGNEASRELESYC
The assay can be described thus: hGIPR CreLuc reporter gene assay in 0.5% and 100% plasma. Format: cell-based. Particulars: CreLuc reporter gene assay.
Description: as §1, §2

[1] abbreviates: 0.5% human plasma, read-out: hGLP1R 0.5% hP.
The mark [2] stands for this setting: 0.5% human plasma, read-out: hGIPR 0.5% hP.
[3] abbreviates: 100% human plasma, read-out: hGIPR 100% hP.
The mark [4] stands for this setting: 100% human plasma, read-out: hGLP1R 100% hP.

Read-outs that look alike come from different tables or passages of the source. Starred links: 1 amine or outer side, 2 acyl side, 3 side chain; linkers in the order of their positions; H or OH if unused. Non-standard residues stand in square brackets, D forms with d. Groups on a side chain read outwards from the residue. *: point of attachment. C20 diacid = O=C(O)CCCCCCCCCCCCCCCCCCC(=O)*; C18 diacid = O=C(O)CCCCCCCCCCCCCCCCC(=O)*; γGlu = O=C(O)[C@H](CCC(=O)[*:2])N[*:1]; εLys = N[C@@H](CCCCN[*:1])C(=O)[*:2]; AEEA = NCCOCCOCC(=O)O; Aib = CC(C)(N)C(=O)O; Ahx = NCCCCCC(=O)O

T1 sequence (P43220 24-463): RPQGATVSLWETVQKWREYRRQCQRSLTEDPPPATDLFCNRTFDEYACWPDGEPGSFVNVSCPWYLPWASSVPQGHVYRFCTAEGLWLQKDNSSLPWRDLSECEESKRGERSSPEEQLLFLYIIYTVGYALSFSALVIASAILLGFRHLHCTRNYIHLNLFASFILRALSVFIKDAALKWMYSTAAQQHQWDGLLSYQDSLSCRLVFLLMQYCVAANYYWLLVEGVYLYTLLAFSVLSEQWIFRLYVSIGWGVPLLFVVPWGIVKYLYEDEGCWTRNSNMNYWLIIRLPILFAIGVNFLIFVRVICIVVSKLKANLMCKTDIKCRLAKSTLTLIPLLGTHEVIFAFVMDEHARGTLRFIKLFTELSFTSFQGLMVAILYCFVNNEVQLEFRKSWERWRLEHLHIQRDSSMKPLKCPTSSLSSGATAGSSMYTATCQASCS

Regarding “H-Y[Aib]EGTFTSDLSI[Aib]LEKQAQ[Aib]AFVEWLIK([εLys-γGlu-γGlu-γGlu-γGlu-γGlu-γGlu-C20 diacid])GGPSSGASLRHYYNWLTRQRY-NH2 [Compound 172, Y-Aib-E-G-T-F-T-S-D-L-S-I-Aib-L-E-K-Q-A-Q-Aib-A-F-V-E-W-L-I-K(1,3)-GGPSSGASLRHYYNWLTRQRY-NH2.C20DA-gGlu-gGlu-gGlu-gGlu-gGlu-gGlu-eLys(1,2)]”, the EC50 on hGLP1R (hGLP1R 0.5% hP, 0.5% human plasma) was 0.07 nM; on hGLP1R (hGLP1R 100% hP, 100% human plasma), 2 nM; on hGIPR (hGIPR 0.5% hP, 0.5% human plasma) it was 0.21 nM; at hGIPR (hGIPR 100% hP, 100% human plasma), 1.83 nM.

As for “H-Y[Aib]EGTFTSDYSI[Aib]LEDQAQ[Aib]AFVEWLIK([εLys-γGlu-γGlu-γGlu-γGlu-γGlu-γGlu-C20 diacid])GGPSSGASLRHYYNWLTRQRY-NH2 [Compound 90, Y-Aib-E-G-T-F-T-S-D-Y-S-I-Aib-L-E-D-Q-A-Q-Aib-A-F-V-E-W-L-I-K(1,3)-GGPSSGASLRHYYNWLTRQRY-NH2.C20DA-gGlu-gGlu-gGlu-gGlu-gGlu-gGlu-eLys(1,2)]”, the EC50 at hGLP1R (setting [1]) is 0.3 nM; at hGIPR (setting [2]), 1.03 nM.

On to “H-Y[Aib]EGTFTSDYSI[Aib]LEEQAQ[Aib]AFVEWLIK([εLys-γGlu-γGlu-γGlu-γGlu-γGlu-C20 diacid])GGPSSGASLRHYYNWLTRQRY-NH2 [Compound 181, Y-Aib-E-G-T-F-T-S-D-Y-S-I-Aib-L-E-E-Q-A-Q-Aib-A-F-V-E-W-L-I-K(1,3)-GGPSSGASLRHYYNWLTRQRY-NH2.C20DA-gGlu-gGlu-gGlu-gGlu-gGlu-eLys(1,2)]”, for which the EC50 on hGLP1R (setting [1]) amounted to 0.14 nM; on hGIPR (setting [2]), 0.16 nM; at hGIPR (setting [3]), 1.23 nM.

As to “H-Y[Aib]EGTFTSDYSI[Aib]LEEQAQ[Aib]AFVQWLIK([εLys-AEEA-γGlu-γGlu-γGlu-γGlu-γGlu-C20 diacid])GGPSSGASLRHYYNWLTRQRY-NH2 [Compound 45, Y-Aib-E-G-T-F-T-S-D-Y-S-I-Aib-L-E-E-Q-A-Q-Aib-A-F-V-Q-W-L-I-K(1,3)-GGPSSGASLRHYYNWLTRQRY-NH2.C20DA-gGlu-gGlu-gGlu-gGlu-gGlu-OEG-eLys(1,2)]”, the EC50 on hGLP1R (setting [1]) was found to be 0.11 nM; on hGLP1R (setting [4]), 1.6 nM; at hGIPR (setting [2]), 0.14 nM; at hGIPR (setting [3]), 1.15 nM.

For the substance “H-Y[Aib]EGTFTSDYSI[Aib]LEEQAQ[Aib]AFVQWLIK([εLys-γGlu-γGlu-γGlu-γGlu-γGlu-C20 diacid])GGPSSGASLRHYYNWLTRQRY-NH2 [Compound 34, Y-Aib-E-G-T-F-T-S-D-Y-S-I-Aib-L-E-E-Q-A-Q-Aib-A-F-V-Q-W-L-I-K(1,3)-GGPSSGASLRHYYNWLTRQRY-NH2.C20DA-gGlu-gGlu-gGlu-gGlu-gGlu-eLys(1,2)]”, the EC50 amounted to 0.09 nM at hGLP1R (setting [1]), 1.39 nM at hGLP1R (setting [4]), 0.13 nM on hGIPR (setting [2]) and 1.61 nM on hGIPR (setting [3]).

Take “H-Y[Aib]EGTFTSDYSI[Aib]LEKEKQ[Aib]AFVEWLIK([εLys-γGlu-γGlu-γGlu-γGlu-γGlu-γGlu-C20 diacid])GGPSSGASLRHYYNWLTRQRY-NH2 [Compound 69, Y-Aib-E-G-T-F-T-S-D-Y-S-I-Aib-L-E-K-E-K-Q-Aib-A-F-V-E-W-L-I-K(1,3)-GGPSSGASLRHYYNWLTRQRY-NH2.C20DA-gGlu-gGlu-gGlu-gGlu-gGlu-gGlu-eLys(1,2)]”: the figures for the EC50 at hGLP1R (setting [1]) and on hGIPR (setting [2]) were 1.48 nM and 0.8 nM, respectively.

As to “H-Y[Aib]EGTFTSDYSI[Aib]LEKQAE[Aib]AFVEWLIK([γGlu-γGlu-γGlu-γGlu-C20 diacid])GGPSEGASLRHYYNWLTRQRY-NH2 [Compound 280, Y-Aib-E-G-T-F-T-S-D-Y-S-I-Aib-L-E-K-Q-A-E-Aib-A-F-V-E-W-L-I-K(1,3)-GGPSEGASLRHYYNWLTRQRY-NH2.C20DA-gGlu-gGlu-gGlu-gGlu(1,2)]”, the values for the EC50 at hGLP1R (setting [1]) and at hGIPR (setting [2]) were 0.44 nM and 0.38 nM, respectively.

“H-Y[Aib]EGTFTSDYSI[Aib]LEKQAQ[Aib]AFVEWLIK([AEEA-AEEA-γGlu-γGlu-γGlu-γGlu-γGlu-C18 diacid])GGPSSGASLRHYYNWLTRQRY-NH2 [Compound 261, Y-Aib-E-G-T-F-T-S-D-Y-S-I-Aib-L-E-K-Q-A-Q-Aib-A-F-V-E-W-L-I-K(1,3)-GGPSSGASLRHYYNWLTRQRY-NH2.C18DA-gGlu-gGlu-gGlu-gGlu-gGlu-OEG-OEG(1,2)]”: the results for the EC50 on hGLP1R (setting [1]), at hGIPR (setting [2]) and on hGIPR (setting [3]) were 0.15 nM, 0.18 nM and 1.15 nM, respectively.

For “H-Y[Aib]EGTFTSDYSI[Aib]LEKQAQ[Aib]AFVEWLIK([AEEA-γGlu-γGlu-γGlu-C18 diacid])GGPSEGASLRHYYNWLTRQRY-NH2 [Compound 300, Y-Aib-E-G-T-F-T-S-D-Y-S-I-Aib-L-E-K-Q-A-Q-Aib-A-F-V-E-W-L-I-K(1,3)-GGPSEGASLRHYYNWLTRQRY-NH2.C18DA-gGlu-gGlu-gGlu-OEG(1,2)]”, the EC50 amounted to 0.11 nM on hGLP1R (setting [1]), 0.16 nM at hGIPR (setting [2]) and 1.81 nM at hGIPR (setting [3]).

Regarding “H-Y[Aib]EGTFTSDYSI[Aib]LEKQAQ[Aib]AFVEWLIK([Ahx-γGlu-γGlu-γGlu-γGlu-γGlu-C18 diacid])GGPSEGASLRHYYNWLTRQRY-NH2 [Compound 304, Y-Aib-E-G-T-F-T-S-D-Y-S-I-Aib-L-E-K-Q-A-Q-Aib-A-F-V-E-W-L-I-K(1,3)-GGPSEGASLRHYYNWLTRQRY-NH2.C18DA-gGlu-gGlu-gGlu-gGlu-gGlu-AHX(1,2)]”, the EC50 on hGLP1R (setting [1]) came to 0.35 nM; on hGIPR (setting [2]), 0.23 nM; on hGIPR (setting [3]), 2.35 nM.

On to “H-Y[Aib]EGTFTSDYSI[Aib]LEKQAQ[Aib]AFVEWLIK([γGlu-γGlu-γGlu-γGlu-γGlu-γGlu-C20 diacid])GGPSSGASLRHYYNWLTRQRY-NH2 [Compound 235, Y-Aib-E-G-T-F-T-S-D-Y-S-I-Aib-L-E-K-Q-A-Q-Aib-A-F-V-E-W-L-I-K(1,3)-GGPSSGASLRHYYNWLTRQRY-NH2.C20DA-gGlu-gGlu-gGlu-gGlu-gGlu-gGlu(1,2)]”, for which the EC50 on hGLP1R (setting [1]) stood at 0.12 nM; on hGIPR (setting [2]) it was 0.34 nM; at hGIPR (setting [3]), 2.81 nM.

Take “H-Y[Aib]EGTFTSDYSI[Aib]LEKQAQ[Aib]AFVEWLIK([εLys-γGlu-γGlu-γGlu-γGlu-γGlu-γGlu-C20 diacid])GGPRSGASLRHYYNWLTRQRY-NH2 [Compound 168, Y-Aib-E-G-T-F-T-S-D-Y-S-I-Aib-L-E-K-Q-A-Q-Aib-A-F-V-E-W-L-I-K(1,3)-GGPRSGASLRHYYNWLTRQRY-NH2.C20DA-gGlu-gGlu-gGlu-gGlu-gGlu-gGlu-eLys(1,2)]”: the values for the EC50 at hGLP1R (setting [1]), at hGIPR (setting [2]) and on hGIPR (setting [3]) were 0.11 nM, 0.2 nM and 1.5 nM, respectively.

Consider “H-Y[Aib]EGTFTSDYSI[Aib]LEKQAQ[Aib]EFVEWLIK([Ahx-γGlu-γGlu-γGlu-γGlu-γGlu-γGlu-C18 diacid])GGPSEGASLRHYYNWLTRQRY-NH2 [Compound 279, Y-Aib-E-G-T-F-T-S-D-Y-S-I-Aib-L-E-K-Q-A-Q-Aib-E-F-V-E-W-L-I-K(1,3)-GGPSEGASLRHYYNWLTRQRY-NH2.C18DA-gGlu-gGlu-gGlu-gGlu-gGlu-gGlu-AHX(1,2)]”, for which the EC50 at hGIPR (setting [2]) is 0.71 nM.

As to “H-Y[Aib]EGTFTSDYSI[Aib]LEKQAQ[Aib]EFVEWLIK([γGlu-γGlu-γGlu-γGlu-C20 diacid])GGPSEGASLRHYYNWLTRQRY-NH2 [Compound 271, Y-Aib-E-G-T-F-T-S-D-Y-S-I-Aib-L-E-K-Q-A-Q-Aib-E-F-V-E-W-L-I-K(1,3)-GGPSEGASLRHYYNWLTRQRY-NH2.C20DA-gGlu-gGlu-gGlu-gGlu(1,2)]”, the EC50 was 0.62 nM at hGIPR (setting [2]) and 2.62 nM at hGIPR (setting [3]).

Turning to “H-Y[Aib]EGTFTSDYSI[Aib]LE[Aib]QAQ[Aib]AFVEWLIK([εLys-γGlu-γGlu-γGlu-γGlu-γGlu-γGlu-C20 diacid])GGPSSGASLRHYYNWLTRQRY-NH2 [Compound 199, Y-Aib-E-G-T-F-T-S-D-Y-S-I-Aib-L-E-Aib-Q-A-Q-Aib-A-F-V-E-W-L-I-K(1,3)-GGPSSGASLRHYYNWLTRQRY-NH2.C20DA-gGlu-gGlu-gGlu-glu-gGlu-gGlu-eLys(1,2)]”, the EC50 on hGIPR (setting [2]) is 0.94 nM.

Values taken from patent US20240247080A1, “GLP1/GIP/NPY2 RECEPTOR TRIPLE AGONISTS” (Boehringer Ingelheim International GmbH, priority 2022, published 2024).
